These results are taken from patent publication US11173192B2 (priority 2016, dated 2021).

In one test the test system is VSV. It counts as cell-based, vesicular stomatitis virus (VSV).
Test [1] concerns VSV-infected RAW264.7 cells. In kind it is cell-based.

Turning to “EPRS: glutamyl-prolyl-tRNA synthetase protein, 1512 aa, SEQ ID NO: 63; expressed from plasmid or purified”, the “viral replication following infection with VSV” value with VSV is on record as “significantly less viral replication”. Further, in test [1], the “IFN-β production following infection with VSV” value is “more production of IFN-β and IL-6”; the “IL-6 production following infection with VSV” value is “more production of IFN-β and IL-6”.
